Values quoted from earlier work, collected in PubChem BioAssay AID1259409 (Chemical Carcinogenesis Research Information System (CCRIS), 2018).

Tested on: rodent chemically induced tumor inhibition, incidence and multiplicity
Assay: CCRIS tumor inhibitor studies
Conditions: Carcinogen: DIETHYLNITROSAMINE, 55-18-5, N-METHYL-N-NITROSOUREA, 684-93-5, N-BUTYL-N-(4-HYDROXYBUTYL)NITROSAMINE, 3817-11-6, DIMETHY, Carcinogen: DIETHYLNITROSAMINE, 55-18-5, N-METHYL-N-NITROSOUREA, 684-93-5, N-BUTYL-N-(4-HYDROXYBUTYL)NITROSAMINE, 3817-11-6, DIMETHY, Dose [Inhibitor]: 0, Route [Inhibitor]: ORAL, Species: RAT, Strain/Sex: F344/MALE, Dose [Carcinogen]: 100 MG/KG BW DEN ONCE FOLLOWED BY 20 MG/KG BW MNU 4 TIMES AND 0.05% BBN IN DRINKING WATER DURING FIRST 2 WK THEN 40 MG/K, Promoter: NONE USED

SMILES: CCOC1=C(O)C(=O)O[C@@H]1[C@@H](O)CO
- tumour outcome (control, treated, inhibition, significance) (1% IN THE DIET FOR 24 WK BEGINNING 1 DAY POST CARCINOGEN TREATMENT (STUDY DURATION: 28 WK), Target Tissue: Type of Lesion: URINARY BLADDER: PAPILLOMA): 7%, 7%, 0%, not significant
- tumour outcome (control, treated, inhibition, significance) (1% IN THE DIET FOR 30 D BEGINNING 1 DAY PRIOR TO CARCINOGEN TREATMENT (STUDY DURATION: 28 WK), Target Tissue: Type of Lesion: LARGE INTESTINE: ADENOMA): 27%, 33%, -22%, not significant
- tumour outcome (control, treated, inhibition, significance) (1% IN THE DIET FOR 30 D BEGINNING 1 DAY PRIOR TO CARCINOGEN TREATMENT (STUDY DURATION: 28 WK), Target Tissue: Type of Lesion: LARGE INTESTINE: CARCINOMA): 7%, 40%, -471%, not significant
- tumour outcome (control, treated, inhibition, significance) (1% IN THE DIET FOR 30 D BEGINNING 1 DAY PRIOR TO CARCINOGEN TREATMENT (STUDY DURATION: 28 WK), Target Tissue: Type of Lesion: SMALL INTESTINE: ADENOMA): 33%, 7%, 79%, not significant
- tumour outcome (control, treated, inhibition, significance) (1% IN THE DIET FOR 30 D BEGINNING 1 DAY PRIOR TO CARCINOGEN TREATMENT (STUDY DURATION: 28 WK), Target Tissue: Type of Lesion: SMALL INTESTINE: CARCINOMA): 7%, 7%, 0%, not significant
- tumour outcome (control, treated, inhibition, significance) (1% IN THE DIET FOR 30 D BEGINNING 1 DAY PRIOR TO CARCINOGEN TREATMENT (STUDY DURATION: 28 WK), Target Tissue: Type of Lesion: THYROID: CARCINOMA): 7%, 0%, 100%, not significant
- tumour outcome (control, treated, inhibition, significance) (1% IN THE DIET FOR 30 DAYS BEGINNING 1 DAY PRIOR TO CARCINOGEN TREATMENT (STUDY DURATION: 28 WK), Target Tissue: Type of Lesion: URINARY BLADDER: CARCINOMA): 7%, 7%, 0%, not significant
- tumour outcome (control, treated, inhibition, significance) (1% IN THE DRINKING WATER FOR 24 WK BEGINNING 1 DAY POST CARCINOGEN TREATMENT (STUDY DURATION: 28 WK), Target Tissue: Type of Lesion: SMALL INTESTINE: CARCINOMA): 7%, 0%, 100%, not significant
